Reference: patent US20040258620A1, “(Ethylene)-( propylene)-triaminepentaacetic acid derivatives, process for their production, and their use for the production of pharmaceutical agents” (priority 2001, published 2004)
Read-outs that look alike come from different tables or passages of the source. Each block holds one molecule with its values, some of them ahead of it.

Assays:
[1] = Simultaneous analysis of 17O NMR, EPR and NMRD data; details: for ΔH^‡ / ΔS^‡: water exchange; for kex^298: water exchange rate
From the text: The ^17O NMR, NMRD and EPR experimental data (points) and the fitted curves (lines) as obtained in a simultaneous analysis, according to the method of Powell et al., J. Am. Chem. Soc.

[2] = IUPAC Stability constants. Academic Software and K. J. Powell, 1999; cited from earlier work
[3] = IUPAC Stability constants. Academic Software and K. J. Powell, 1999; cited from earlier work; remark: listed apart in the source
[4] = IUPAC Stability constants. Academic Software and K. J. Powell, 1999; cited from earlier work; remark: listed apart in the source
[5] = cited from earlier work
[6] = Stability constants of the complexes formed with Gd(III) by pH-potentiometry; type: physicochemical; details: I=0.1M TMACI, t=25° C.
From the text: (§1) Protonation constants of the two ligands, DPTPA and EPTPA-Bz-NO2, and stability constants of their complexes formed with Gd(III) and some endogenously available cations have been determined by pH-potentiometry. The selectivity of the ligand for Gd(III) over Zn(II) (log(KGdL/KZnL)) is especially important as it directly relates to the safety of the Gd(III) contrast agent.

[7] = Protonation constants of the ligands by pH-potentiometry; type: physicochemical; details: protonation constant of the ligand; I=0.1M TMACI, t=25° C.
From the text: as §1

[8] = Stability constants of the complexes formed with Zn(II) by pH-potentiometry; type: physicochemical; details: I=0.1M TMACI, t=25° C.
From the text: as §1

[9] = Stability constants of the Ca complexes by pH-potentiometry; type: physicochemical
From the text: as §1

A/ħ ([1]; Gd(III) complex of the ligand): −3.8 ± 0.2 10^6 rad s^−1 | Ev ([1]; Gd(III) complex of the ligand): 0.382 ± 0.43 kcal/mol | Δ^2 ([1]; Gd(III) complex of the ligand): 0.46 ± 0.02 10^20 s^−1 | τr ([1]; Gd(III) complex of the ligand): 58 ± 11 ps | τy ([1]; Gd(III) complex of the ligand): 25 ± 1 ps | Er ([1]; not told): 4.13 ± 0.19 kcal/mol
SMILES: O=C(O)CN(CCN(CC(=O)O)CC(=O)O)CCN(CC(=O)O)CC(=O)O [DTPA, diethylenetriamine-pentaacetic acid, reference compound]
ΔH^‡ ([1]; Gd(III) complex of the ligand): 12.3 ± 0.335 kcal/mol | ΔS^‡ ([1]; Gd(III) complex of the ligand): 53.0 ± 4.7 J mol^−1K^−1 | kex^298 ([1]; Gd(III) complex of the ligand): 3.3 ± 0.2 10^6 s^−1 | logKGdHL [2]: 1.80 | logKGdL [2]: 22.50 | logKCaHL [3]: 6.42 | logKCaL [3]: 10.89 | logKZnHL [4]: 3.0 | logKZnL [4]: 18.3

SMILES: O=C([O-])CN1CCCN(CC(=O)[O-])CCN(CC(=O)[O-])CCN(CC(=O)[O-])CC1.[Gd+3] [Gd(III)(TRITA)]
thermodynamic stability constant, logβ ([5]; determined by potentiometry [Clarke and Martell, Inorg. Chim, Acta, 1991]): 19.2

logKGdH2L [6]: 2.40 | logKGdHL [6]: 3.35 | logKGdL ([6]; stability constant): 19.31 | pKa1 [7]: 10.86 | pKa2 [7]: 8.94 | pKa3 [7]: 4.70 | pKa4 [7]: 3.25 | pKa5 [7]: 2.51 | A/ħ ([1]; Gd(III) complex of the ligand): −3.5 ± 0.2 10^6 rad s^−1 | Er ([1]; Gd(III) complex of the ligand): 4.76 ± 0.406 kcal/mol | Δ^2 ([1]; Gd(III) complex of the ligand): 0.37 ± 0.03 10^20 s^−1 | τr ([1]; Gd(III) complex of the ligand): 84.6 ± 6 ps | τy ([1]; Gd(III) complex of the ligand): 20 ± 1 ps | logKZnH2L [8]: 2.53 | logKZnHL [8]: 8.99 | logKZnL ([8]; stability constant): 16.01 | logKCaHL [9]: 7.04 | logKCaL ([9]; stability constant): 10.02
SMILES: O=C(O)CN(CCCN(CC(=O)O)CC(Cc1ccc([N+](=O)[O-])cc1)N(CC(=O)O)CC(=O)O)CC(=O)O (centres unmarked) [EPTPA-bz-NO2]
ΔH^‡ ([1]; Gd(III) complex of the ligand): 5.66 ± 0.43 kcal/mol | ΔS^‡ ([1]; Gd(III) complex of the ligand): −9.2 ± 4.0 J mol^−1K^−1 | kex^298 ([1]; Gd(III) complex of the ligand): 146 ± 23 10^6 s^−1

SMILES: O=C([O-])CN(CCCN(CC(=O)[O-])CC(=O)[O-])CCN(CC(=O)[O-])CC(=O)[O-].[Gd+3] [Gd(III)(EPTPA), Gd(III) complex of 3,6,10-tri(carboxymethly)-3,6,10-triazadodecanedioic acid]
thermodynamic stability constant, logo ([5]; determined by potentiometry (Wang et al, Dalton, 1998)): 22.77
